Reference: patent US20240018132A1, “5-HYDROXY-1,4-NAPHTHALENEDIONE FOR USE IN THE TREATMENT OF CANCER” (GODAVARI BIOREFINERIES LIMITED, priority 2020, published 2024)

How the values were obtained:
MDAMB231 [1] = experiment: Soft agar colony-formation assay, breast cancer; format: cell-based; conditions: for anticancer activity in comparison with cisplatin, soft agar, breast cancer cell line: FIG. 51, MDAMB231; for IC50: Homo sapiens, MDA-MB-231, 168 h, Soft Agar Assay, 1 week, Alamar Blue
Experimental: (§1) The Soft Agar Colony-formation Assay is an anchorage-independent growth assay in soft agar, which is one of the most stringent assays for detecting malignant transformation of cells. For this assay, malignant cells are cultured with appropriate controls in soft agar medium for 1-2 weeks. Following this incubation period, formed colonies can either be analyzed morphologically using cell stain and quantifying the number of colonies formed.
(§2) Briefly, for Soft Agar Assay a mixture of 50 ul of 2× medium (taken appropriately as per cell line) and 50 ul of 1.2% Bacto Agar were plated on to each well of 96 well micro titer assay plate. 10 ul of cells (of specific plating efficiency pre standardized for respective cell line) were mixed with 20 ul of 2× medium and 30 ul of 0.8% of Bacto Agar and 1.6 ul of drug (of appropriate concentration) in a vial and transferred to the solidified pre layers of the assay plates. The cells were then allowed to grow and form colonies at 37° C. and 5% CO2 for 1 week. An intermittent feeding with 50 ul of appropriate 2× medium was performed after 3 days of experimental set up. 16 ul of Alamar Blue (1.5 mg/ml) was then added to all the wells to quantify the developed colonies. The plates were incubated for 24 hrs at 37° C. Absorbance was then measured at 630 nm. XY graph of log Percent viability was then plotted against log drug concentration.
(§3) Following plating efficiencies were standardized for Soft Agar Assay: […]

MDAMB231 [2] = experiment: In vitro sphere-forming assay (cancer stem cells), Mammosphere media; conditions: for viability at 0.0025 µM / viability at 0.025 µM / viability at 0.25 µM / viability at 2.5 µM / viability at 25 µM: Homo sapiens, MDA-MB-231, read-out: % Viability of spheres (MDAMB231); for 3D sphere count of MDAMB231: Mammosphere media, 2000 cells/well, n = 6 ± S.D
Human lymphocytes = experiment: Lymphocyte assay (MTT on normal cells); format: cell-based; conditions: human peripheral blood lymphocytes, MTT procedure; for IC50: Lymphocyte
Experimental: Human lymphocytes were isolated from the peripheral blood. A pure population of lymphocytes was obtained based on differential centrifugation, in which diluted defibrinated blood was layered on a solution of sodium diatrizoate and polysucrose (HiSep LSM 1077) and centrifuged at low speeds for 30 mins.
Procedure: The separation of lymphocytes from fresh defibrinated blood was performed by the procedure described below: • 1. Diluted defibrinated fresh blood was overlaid gradually on (HiSeP LSM1077) and centrifuged at low speed for 30 mins. • 2. The lymphocyte layer (the buffy coat) was carefully removed in a new collection tube. • 3. The buffy coat was given another wash, by the diluent buffer Dulbecco's phosphate buffered saline (D.P.B.S) • 4. The supernatant was discarded and the pellet was resuspended in D.P.B.S. • 5. The viability of cells was checked by Haemocytometer. • 6. Cells with purity and viability of more than 95% were taken for the experiment. • 7. Purified lymphocytes were diluted at a concentration of 0.7 million/ml with sterile D.P.B.S and MTT procedure was performed exactly as described earlier.

PC3 [3] = experiment: In vitro sphere-forming assay (cancer stem cells), Prostosphere media; conditions: for viability at 0.0025 µM / viability at 0.025 µM / viability at 0.25 µM / viability at 2.5 µM / viability at 25 µM: Homo sapiens, PC-3, read-out: % Viability of spheres (PC3); for 3D sphere count of PC3: Prostosphere media, 2000 cells/well, n = 6 ± S.D
PC3 [4] = experiment: Soft agar colony-formation assay, prostate cancer; format: cell-based; conditions: for anticancer activity in comparison with cisplatin, soft agar, prostate cancer cell line: FIG. 52, PC3; for IC50: Homo sapiens, PC-3, 168 h, Soft Agar Assay, 1 week, Alamar Blue
Experimental: as §1, §2, §3

PC3 [5] = experiment: In vitro antiproliferative assay (MTT assay), prostate cancer cell line; format: cell-based; conditions: Homo sapiens, PC-3, 48 h, MTT assay, prostate cancer PC3, 48 hrs drug incubation
Experimental: (§4) MTT assay is a simple and sensitive assay where, metabolic reducing activity of the cells is measured. The increase of this activity in time is taken as a parameter of cell growth. If treatment with a drug impairs this increase, the action is a consequence of growth inhibition, cell killing or both. […] All cell lines were cultured in a 37° C. incubator with a 5% CO2 environment. Compounds were dissolved in DMSO with a concentration of 0.1M (stock solution). Cells were seeded into 96-well plates at suitable plating efficiency.
(§5) Following plating efficiencies were standardized for MTT assay:
(§6) In the MTT procedure, the cells were plated in 96 well plates as per predetermined plating efficiency (Table1). The plates were then incubated for 24 hrs in 5% CO2 atmosphere at 37° C. Appropriate concentrations of the drugs were then added to the plate and further incubation was carried out for 48 hrs (in 5% CO2 atmosphere at 37° C.). The assay plate was then centrifuged twice at 3000 rpm for 3 mins and supernatant was then discarded. 100 ul of MTT solution (0.5 mg/ml) was then added to each well of the plate and it was further incubated for 4 hrs (in 5% CO2 atmosphere at 37° C.) Following 4 hr incubation, the plate was then centrifuged twice, and supernatant was aspirated off very carefully. 200 ul of DMSO was then added to each well to solubilize. MTT crystals and mixed well by shaking the plate. XY graph of log percent viability was then plotted against log drug concentration.

MDAMB231 [6] = experiment: In vitro antiproliferative assay (MTT assay), breast cancer cell line; format: cell-based; conditions: Homo sapiens, MDA-MB-231, 48 h, MTT assay, breast cancer MDAMB231, 48 hrs drug incubation
Experimental: as §4, §5, §6

Row | SMILES | viability at 0.0025 µM (MDAMB231 [2]) [%] | viability at 0.025 µM (MDAMB231 [2]) [%] | viability at 0.25 µM (MDAMB231 [2]) [%] | viability at 2.5 µM (MDAMB231 [2]) [%] | viability at 25 µM (MDAMB231 [2]) [%] | 3D sphere count of MDAMB231 (MDAMB231 [2]; drug 0.0025 uM) | 3D sphere count of MDAMB231 (MDAMB231 [2]; drug 0.025 uM) | 3D sphere count of MDAMB231 (MDAMB231 [2]; drug 0.25 uM) | 3D sphere count of MDAMB231 (MDAMB231 [2]; drug 2.5 uM) | 3D sphere count of MDAMB231 (MDAMB231 [2]; drug 25 uM) | viability at 0.0025 µM (PC3 [3]) [%] | viability at 0.025 µM (PC3 [3]) [%] | viability at 0.25 µM (PC3 [3]) [%] | viability at 2.5 µM (PC3 [3]) [%] | viability at 25 µM (PC3 [3]) [%] | 3D sphere count of PC3 (PC3 [3]; drug 0.0025 uM) | 3D sphere count of PC3 (PC3 [3]; drug 0.025 uM) | 3D sphere count of PC3 (PC3 [3]; drug 0.25 uM) | 3D sphere count of PC3 (PC3 [3]; drug 2.5 uM) | 3D sphere count of PC3 (PC3 [3]; drug 25 uM) | further results
1 | O=C1C=C(N2CCOCC2)C(=O)c2c(OCCN3CCOCC3)cccc21 [Formula 73] | 87 | 70 | 50 | 35 | 19 | 62(±4) | 50(±3) | 36(±4) | 25(±3) | 14(±3) | 86 | 68 | 50 | 36 | 23 | 69(±2) | 55(±3) | 40(±3) | 29(±3) | 19(±3) | anticancer activity in comparison with cisplatin, soft agar, breast cancer cell line (MDAMB231 [1]): higher anticancer activity in comparison with cisplatin; IC50 (MDAMB231 [1]): 3.77 µM; Activity on Lymphocytes (IC50) (Human lymphocytes): No activity; anticancer activity in comparison with cisplatin, soft agar, prostate cancer cell line (PC3 [4]): higher anticancer activity in comparison with cisplatin; IC50 (PC3 [4]): 2.68 µM; IC50 (PC3 [5]): 3.05 µM; IC50 (MDAMB231 [6]): 2.18 µM
2 | O=C1C=C(OCCCCN2CCOCC2)C(=O)c2ccccc21 [Formula 67] | 80 | 69 | 56 | 48 | 37 | 67(±2) | 58(±3) | 47(±5) | 40(±5) | 31(±2) | 70 | 64 | 51 | 44 | 36 | 61(±5) | 56(±3) | 45(±3) | 39(±2) | 32(±3) | anticancer activity in comparison with cisplatin, soft agar, breast cancer cell line (MDAMB231 [1]): higher anticancer activity in comparison with cisplatin; IC50 (MDAMB231 [1]): 3.17 µM; IC50 (Human lymphocytes): 5.15 µM; anticancer activity in comparison with cisplatin, soft agar, prostate cancer cell line (PC3 [4]): higher anticancer activity in comparison with cisplatin; IC50 (PC3 [4]): 2.21 µM; IC50 (PC3 [5]): 4.11 µM; IC50 (MDAMB231 [6]): 3.09 µM
3 | O=C(O)CCCOc1cccc2c1C(=O)C=C(Nc1ccc3c(c1)OCO3)C2=O [Formula 70] | 86 | 74 | 62 | 41 | 24 | 71(±3) | 61(±3) | 51(±3) | 34(±3) | 20(±2) | 95 | 67 | 50 | 41 | 31 | 78(±2) | 55(±2) | 41(±3) | 34(±4) | 25(±3) | IC50 (Human lymphocytes): 5.41 µM; IC50 (PC3 [5]): 2.23 µM; IC50 (MDAMB231 [6]): 3.02 µM
